Patent publication US7560466B2, “Methods of treating or preventing autoimmune diseases with 2,4-pyrimidinediamine compounds” (Rigel Pharmaceuticals, Inc., priority 2003, dated 2009)

Biological target: T1, Syk kinase (Homo sapiens, UniProt P43405)
T1 construct: purchased Upstate, Lake Placid N.Y
Assay: Syk kinase biochemical fluorescence polarization assay
Settings: isolated Syk kinase, 11-point, read-out: fp_syk, 11pt
Protocol: Many of the 2,4-pyrimidinediamine compounds were tested for the ability to inhibit Syk kinase catalyzed phosphorylation of a peptide substrate in a biochemical fluorescenced polarization assay with isolated Syk kinase. In this experiment, Compounds were diluted to 1% DMSO in kinase buffer (20 mM HEPES, pH 7.4, 5 mM MgCl2, 2 mM MnCl2, 1 mM DTT, 0.1 mg/mL acetylated Bovine Gamma Globulin). Compound in 1% DMSO (0.2% DMSO final) was mixed with ATP/substrate solution at room temperature. Syk kinase (Upstate, Lake Placid N.Y.) was added to a final reaction volume of 20 uL, and the reaction was incubated for 30 minutes at room temperature. […] EDTA (10 mM final)/anti-phosphotyrosine antibody (1× final)/fluorescent phosphopeptide tracer (0.5× final) was added in FP Dilution Buffer to stop the reaction for a total volume of 40 uL according to manufacturer's instructions (PanVera Corporation) The plate was incubated for 30 minutes in the dark at room temperature. Plates were read on a Polarion fluorescence polarization plate reader (Tecan). Data were converted to amount of phosphopeptide present using a calibration curve generated by competition with the phosphopeptide competitor provided in the Tyrosine Kinase Assay Kit, Green (PanVera Corporation).
In Tabe 1, all reported values are IC50s (in μM).

| IC50 | Compound |
| --- | --- |
| < 10 µM | CC1(C)Oc2ccc(Nc3nc(Nc4cccc(-c5cnco5)c4)ncc3F)cc2NC1=O [Compound 1016] |

Same assay, conditions: isolated Syk kinase, 11pt, read-out: fp_syk, 11pt

| IC50 | Compound |
| --- | --- |
| < 10 µM | COc1cc(Nc2ncc(F)c(Nc3ccc4c(c3)NC(C)(C)CO4)n2)cc(OC)c1 [Compound 203, N4-(3,4-Dihydro-3,3-dimethyl-2H,4H-benz[1,4]oxazin-6-yl)-N2-(3,5-dimethoxyphenyl)-5-fluoro-2,4-pyrimidinediamine] |
| < 10 µM | O=C1Nc2cc(Nc3nc(Nc4ccc(-c5cnco5)cc4)ncc3F)ccc2OC1CCO (centres unmarked) [Compound 227] |
| < 10 µM | COc1cc(Nc2ncc(F)c(Nc3ccc4c(c3)NC(=O)C(C)S4(=O)=O)n2)cc(OC)c1 (centres unmarked) [Compound 263, N2-(3,5-Dimethoxyphenyl)-N4-(dioxide-2-methyl-1,1,3-trioxo-4H-benzo[1,4]thiazin-6-yl)-5-fluoro-2,4-pyrimidinediamine] |
| < 10 µM | Cc1cc(C)cc(Nc2ncc(F)c(Nc3ccc4c(c3)NC(=O)C(C)S4(=O)=O)n2)c1 (centres unmarked) [Compound 264] |
| < 10 µM | CC1C(=O)Nc2cc(Nc3nc(Nc4ccc5cn[nH]c5c4)ncc3F)ccc2S1(=O)=O (centres unmarked) [Compound 265] |
| < 10 µM | COc1cc(Nc2ncc(F)c(Nc3ccc4c(c3)NC(=O)C(C)S4(=O)=O)n2)cc(OC)c1OC (centres unmarked) [Compound 266] |
| < 10 µM | COc1cc(Nc2ncc(F)c(Nc3ccc4c(c3)NC(=O)C(C)(C)S4(=O)=O)n2)cc(OC)c1 [Compound 267] |
| < 10 µM | Cc1cc(C)cc(Nc2ncc(F)c(Nc3ccc4c(c3)NC(=O)C(C)(C)S4(=O)=O)n2)c1 [Compound 268] |
| < 10 µM | COc1cc(Nc2ncc(F)c(Nc3ccc4c(c3)NC(=O)C(C)(C)S4(=O)=O)n2)cc(OC)c1OC [Compound 269] |
| < 10 µM | CC1(C)Sc2ccc(Nc3nc(Nc4ccc5cn[nH]c5c4)ncc3F)cc2NC1=O [Compound 295] |
| < 10 µM | CC1(C)Oc2ccc(Nc3nc(Nc4cc(CO)cc(CO)c4)ncc3F)cc2NC1=O [Compound 344, N2-[3,5-Bis(hydoxymethylene)phenyl]-N4-(2,2-dimethyl-3-oxo-4H-benz[1,4]oxazin-6-yl)-5-fluoro-2,4-pyrimidinediamine] |
| > 10 µM | CN(c1ccc2c(c1)OCCO2)c1nc(Cl)ncc1F [Compound 390] |
| < 10 µM | COc1cc(Nc2ncc(F)c(Nc3ccc4c(c3)NC(=O)C(C)(C)O4)n2)cc(OC)c1OC [Compound 543] |
| < 10 µM | CCn1ncc2cc(Nc3ncc(F)c(Nc4ccc5c(c4)NC(=O)C(C)(C)O5)n3)ccc21 [Compound 696] |
| < 10 µM | CCCn1ncc2cc(Nc3ncc(F)c(Nc4ccc5c(c4)NC(=O)C(C)(C)O5)n3)ccc21 [Compound 704] |
| < 10 µM | CCCn1ncc2ccc(Nc3ncc(F)c(Nc4ccc5c(c4)NC(=O)C(C)(C)O5)n3)cc21 [Compound 708] |
| < 10 µM | CCCCn1ncc2cc(Nc3ncc(F)c(Nc4ccc5c(c4)NC(=O)C(C)(C)O5)n3)ccc21 [Compound 712] |
| < 10 µM | CCCCn1ncc2ccc(Nc3ncc(F)c(Nc4ccc5c(c4)NC(=O)C(C)(C)O5)n3)cc21 [Compound 716] |
| < 10 µM | CC1(C)Oc2ccc(Nc3nc(Nc4ccc5c(cnn5CC5CC5)c4)ncc3F)cc2NC1=O [Compound 736] |
| < 10 µM | CC1(C)Oc2ccc(Nc3nc(Nc4ccc5cnn(CC6CC6)c5c4)ncc3F)cc2NC1=O [Compound 740] |
| < 10 µM | CC1(C)Oc2ccc(Nc3nc(Nc4ccc5c(cnn5C5CCCCC5)c4)ncc3F)cc2NC1=O [Compound 744] |
| < 10 µM | Cc1nn(C)c2cc(Nc3ncc(F)c(Nc4ccc5c(c4)NC(=O)C(C)(C)O5)n3)ccc12 [Compound 754] |

| IC50 | Compound |
| --- | --- |
| < 10 µM | CC1(C)Oc2ccc(Nc3nc(Nc4ccc5nc(C(F)(F)F)[nH]c5c4)ncc3F)cc2NC1=O [Compound 802, N4-(2,2-Dimethyl-3-oxo-4H-benz[1,4]oxazin-6-yl)-5-fluoro-N2-(2-trifluoromethyl-1H-benzimidazol-5-yl)-2,4-pyrimidinediamine] |
| < 10 µM | Cn1nc(N)c2cc(Nc3ncc(F)c(Nc4ccc5c(c4)NC(=O)C(C)(C)O5)n3)ccc21 [Compound 806, N2-(3-A mino-1-methylindazol-5-yl)-N4-(2,2-dimethyl-3-oxo-4H-benz[1,4]oxazin-6-yl)-5-fluoro-2,4-pyrimidinediamine] |
| < 10 µM | Cc1nc2ccc(Nc3ncc(F)c(Nc4ccc5c(c4)NC(=O)C(C)(C)O5)n3)cc2[nH]1 [Compound 810, N4-(2,2-Dimethyl-3-oxo-4H-benz[1,4]oxazin-6-yl)-5-fluoro-N2-(2-methyl-3H-benzimidazol-5-yl)-2,4-pyrimidinediamine] |
| < 10 µM | Cc1nc2ccc(Nc3ncc(F)c(Nc4ccc5c(c4)NC(=O)[C@H](C)O5)n3)cc2[nH]1 [Compound 811, (S)-5-Fluoro-N2-(2-methyl-3H-benzimidazol-5-yl)-N4-(2-methyl-3-oxo-2H,4H-benz[1,4]oxazin-6-yl)-2,4-pyrimidinediamine] |
| < 10 µM | CC(=O)NCCCn1ncc2cc(Nc3ncc(F)c(Nc4ccc5c(n4)NC(=O)C(C)(C)O5)n3)ccc21 [Compound 822, N2-[1-[3-(N-Acetylamino)propyl]indazol-5-yl]-N4-(2,2-dimethyl-3-oxo-4H-5-pyrid[1,4]oxazin-6-yl)-5-fluoro-2,4-pyrimidinediamine] |
| < 10 µM | Cc1nc2ccc(Nc3ncc(F)c(Nc4ccc5c(n4)NC(=O)C(C)(C)O5)n3)cc2[nH]1 [Compound 845, N4-(2,2-Dimethyl-3-oxo-4H-5-pyrid[1,4]oxazin-6-yl)-5-fluoro-N2-(2-methyl-3H-benzimidazol-5-yl)-2,4-pyrimidinediamine] |
| < 10 µM | CC1(C)Oc2ccc(Nc3nc(Nc4ccc5[nH]c(C(F)(F)F)nc5c4)ncc3F)nc2NC1=O [Compound 846, N4-(2,2-Dimethyl-3-oxo-4H-5-pyrid[1,4]oxazin-6-yl)-5-fluoro-N2-(2-trifluoromethyl-1H-benzimidazol-5-yl)-2,4-pyrimidinediamine] |
| < 10 µM | Cc1nc2cc(Nc3ncc(F)c(Nc4ccc5c(c4)NC(=O)[C@H](C)O5)n3)ccc2n1C [Compound 897] |
| < 10 µM | Cc1nc2cc(Nc3ncc(F)c(Nc4ccc5c(n4)NC(=O)C(C)(C)O5)n3)ccc2n1C [Compound 898, N2-(1,2-Dimethylbenzimidazol-5-yl)-N4-(2,2-dimethyl-3-oxo-4H-5-pyrid[1,4]oxazin-6-yl)-5-Fluoro-2,4-pyrimidinediamine] |
| < 10 µM | Cc1nc2cc(Nc3ncc(F)c(Nc4ccc5c(c4)NC(=O)C(C)(C)O5)n3)ccc2n1CCO [Compound 901] |
| < 10 µM | Cc1nc2cc(Nc3ncc(F)c(Nc4ccc5c(c4)NC(=O)[C@H](C)O5)n3)ccc2n1CCO [Compound 902] |
| < 10 µM | Cc1nc2cc(Nc3ncc(F)c(Nc4ccc5c(n4)NC(=O)C(C)(C)O5)n3)ccc2n1CCO [Compound 903, N4-(2,2-Dimethyl-3-oxo-4H-5-pyrid[1,4]oxazin-6-yl)-5-fluoro-N2-[1-(2-hydroxyethyl)-2-methylbenzimidazol-5-yl)-2,4-pyrimidinediamine] |
| < 10 µM | Cc1nc2ccc(Nc3ncc(F)c(Nc4ccc5c(c4)NC(=O)C(C)S5(=O)=O)n3)cc2[nH]1 (centres unmarked) [Compound 909] |
| < 10 µM | CC1C(=O)Nc2cc(Nc3nc(Nc4ccc5[nH]c(C(F)(F)F)nc5c4)ncc3F)ccc2S1(=O)=O (centres unmarked) [Compound 910, 5-Fluoro-N4-(2-methyl-1,1,3-trioxo-2H,4H-benzo[1,4]thiazin-6-yl)-N2-(2-trifluoromethyl-1H-benzimidazol-5-yl)-2,4-pyrimidinediamine] |
| < 10 µM | CC1(C)Oc2ccc(Nc3nc(Nc4ccc5[nH]c(CN6CCOCC6)nc5c4)ncc3F)cc2NC1=O [Compound 961, N4-(2,2-Dimethyl-3-oxo-4H-benz[1,4]oxazin-6-yl)-5-fluoro-N2-[2-(4-morpholinomethyl)-1H-benzimidazol-5-yl]-2,4-pyrimidinediamine] |
| < 10 µM | CC1(C)Oc2ccc(Nc3nc(Nc4ccc5[nH]c(CN6CCOCC6)nc5c4)ncc3F)nc2NC1=O [Compound 962, N4-(2,2-Dimethyl-3-oxo-4H-5-pyrido[1,4]oxazin-6-yl)-5-fluoro-N2-[2-(4-morpholinomethyl)-1H-benzimidazol-5-yl]-2,4-pyrimidinediamine] |
| < 10 µM | CC1(C)Oc2ccc(Nc3nc(Nc4ccc5[nH]c(N6CCOCC6)nc5c4)ncc3F)cc2NC1=O [Compound 976, N4-(2,2-Dimethyl-3-oxo-4H-benz[1,4]oxazin-6-yl)-5-fluoro-N2-[2-(4-morpholino)-1H-benzimidazol-5-yl]-2,4-pyrimidinediamine] |
| < 10 µM | CC1(C)Oc2ccc(Nc3nc(Nc4ccc5[nH]c(N6CCOCC6)nc5c4)ncc3F)nc2NC1=O [Compound 977, N4-(2,2-Dimethyl-3-oxo-4H-5-pyrido[1,4]oxazin-6-yl)-5-fluoro-N2-[2-(4-morpholino)-1H-benzimidazol-5-yl]-2,4-pyrimidinediamine] |
| < 10 µM | COc1c(C)cc(Nc2ncc(F)c(Nc3ccc4c(n3)NC(=O)C(C)(C)O4)n2)cc1C [Compound 997, N2-(3,5-Dimethyl-4-methoxyphenyl)-N4-(2,2-dimethyl-3-oxo-4H-5-pyrid[1,4]oxazin-6-yl)-5-fluoro-2,4-pyrimidinediamine] |
| < 10 µM | CCOc1c(C)cc(Nc2ncc(F)c(Nc3ccc4c(c3)NC(=O)C(C)(C)O4)n2)cc1Cl [Compound 1008] |
| < 10 µM | CC1(C)Oc2ccc(Nc3nc(Nc4ccc(-c5ncco5)cc4)ncc3F)cc2NC1=O [Compound 1011] |
